# Bridge positions count the residues as written; N and C are the ends. Peptide text beside a SMILES is read from it.
# Legend:
# [1] = test system: Staphylococcus aureus; assay: Killing kinetics (colony counting); assay type: cell-based; details: 200 μg/mL peptide, 37°C, PBS pH 7.4; sampled at 0, 30, 60, 90, 180 min
# Description: (§1) Bacteria were cultured overnight at 37°C in LB broth for E. coli, and in tryptic soy broth for the other bacteria, and suspended to 5.0×10^5 colony-forming units (CFU)/mL in PBS (pH 7.4). To measure antimicrobial activity, 25 μL of bacteria were added into 96-well microtiter plates and diluted duck LEAP-2 peptides were dispensed to final concentrations of 50, 100, 150, and 200 μg/mL. After 3 h of incubation at 37°C, surviving bacteria were counted using a standard colony counting assay according to the following formula: cell survival % = (treatment CFU/negative control CFU)×100. To determine the killing kinetics, L. monocytogenes and S. aureus were cultured overnight in tryptic soy broth and suspended to 5.0×10^5 CFU/mL in PBS (pH 7.4). Bacteria were added into 96-well microtiter plates with a final peptide concentration of 200 μg/mL. The bacteria and peptide mixture was incubated for 0, 30, 60, 90, and 180 min at 37°C. Surviving bacteria were counted using a standard colony counting assay.
# [2] = test system: Listeria monocytogenes ATCC 19115; assay: Killing kinetics (colony counting); assay type: cell-based; details: 200 μg/mL peptide, 37°C, PBS pH 7.4; sampled at 0, 30, 60, 90, 180 min
# Description: as §1
# [3] = test system: Salmonella enterica serovar Enteritidis YHS 383; assay: Antimicrobial activity assay (colony counting); assay type: cell-based; details: 3 h at 37°C, PBS pH 7.4, colony counting; concentration not given
# Description: (§2) The bacterial species used in this experiment included two gram-positive bacteria strains, Listeria monocytogenes (L. monocytogenes) ATCC 19115 and Staphylococcus aureus (S. aureus) ATCC 27664, and four gram-negative bacteria strains, E. coli ATCC 43888, Salmonella enterica serovar Enteritidis YHS 383, Salmonella enterica serovar Choleraesuis YHS 386, and Salmonella enterica serovar Typhimurium ATCC 43174.
# as §1
# [4] = test system: L. monocytogenes; assay: Fluorescence microscopic analysis, LIVE/DEAD BacLight staining; assay type: cell-based, Listeria monocytogenes; details: 200 μg/mL peptide, 3 h at 37°C, SYTO9 / propidium iodide
# Description: (§3) E. coli, S. aureus, and L. monocytogenes (5.0×10^5 CFU/mL) in PBS were incubated with a 200 μg/mL (final concentration) of the disulfide-LEAP-2 peptide for 3 h at 37°C. After incubation, the cells were washed with PBS and stained with LIVE/DEAD BacLight Bacterial Viability Kits (Invitrogen, USA) according to the manufacturer’s instructions. In brief, the bacteria were incubated for 15 min with SYTO9 green fluorescent […] and with propidium iodide in a dark room. The cells were then mounted onto glass slides and examined using EVOS FLoid Cell Imaging Station (Invitrogen, USA).
# [5] = test system: E. coli; assay: as above; assay type: cell-based, Escherichia coli; details: 200 μg/mL peptide, 3 h at 37°C, SYTO9 / propidium iodide
# Description: as §3
# [6] = test system: S. aureus; assay: as above; assay type: cell-based, Staphylococcus aureus; details: 200 μg/mL peptide, 3 h at 37°C, SYTO9 / propidium iodide
# Description: as §3
# [7] = test system: E. coli ATCC 43888; assay: Antimicrobial activity assay (colony counting); assay type: cell-based, Escherichia coli; details: 50 μg/mL peptide, 3 h at 37°C, PBS pH 7.4, colony counting
# Description: as §2
# as §1, with “The bacteria and peptide mixture was incubated for 0, 30, 60, 90, and 180 min at 37°C.” left out
# [8] = test system: Listeria monocytogenes (L. monocytogenes) ATCC 19115; assay: Antimicrobial activity assay (colony counting); assay type: cell-based; details: 50 μg/mL peptide, 3 h at 37°C, 5.0×10^5 CFU/mL in PBS pH 7.4, colony counting
# Description: as §2, §1
# [9] = test system: Salmonella enterica serovar Typhimurium ATCC 43174; assay: Antimicrobial activity assay (colony counting); assay type: cell-based; details: 200 μg/mL peptide, 3 h at 37°C, PBS pH 7.4, colony counting
# Description: as §2, §1
# [10] = test system: Staphylococcus aureus (S. aureus) ATCC 27664; assay: Antimicrobial activity assay (colony counting); assay type: cell-based; details: 50 μg/mL peptide, 3 h at 37°C, 5.0×10^5 CFU/mL in PBS pH 7.4, colony counting
# Description: as §2, §1
SMILES,killing of S. aureus over time [1],time in which all L. monocytogenes were killed [2],S. Enteritidis inhibited [3],live/dead staining of L. monocytogenes (red fluorescence = dead) [4],live/dead staining of E. coli (red fluorescence = dead) [5],live/dead staining of S. aureus (red fluorescence = dead) [6],E. coli killed [7],killing of L. monocytogenes [8],"killing effect / inhibition of cell proliferation, S. Typhimurium [9]",killing of S. aureus [10]
CC[C@H](C)[C@H](NC(=O)[C@H](CS)NC(=O)[C@H](CCC(=O)O)NC(=O)[C@H](CO)NC(=O)[C@H](CC(N)=O)NC(=O)[C@H](CC(=O)O)NC(=O)[C@H](CCCNC(=N)N)NC(=O)[C@H](CS)NC(=O)[C@H](CO)NC(=O)[C@H](C)NC(=O)CNC(=O)[C@@H](NC(=O)[C@@H]1CCCN1C(=O)[C@H](CCCNC(=N)N)NC(=O)[C@H](CC(C)C)NC(=O)[C@H](CO)NC(=O)[C@@H](NC(=O)CNC(=O)[C@H](CCCNC(=N)N)NC(=O)[C@H](Cc1c[nH]c2ccccc12)NC(=O)[C@H](Cc1ccccc1)NC(=O)[C@@H]1CCCN1C(=O)[C@@H](NC(=O)[C@@H](N)CCSC)[C@@H](C)O)C(C)C)[C@@H](C)CC)C(=O)N[C@H](C(=O)N[C@@H](CCSC)C(=O)N[C@@H](CC(C)C)C(=O)N[C@@H](CS)C(=O)N[C@@H](CCCNC(=N)N)C(=O)N[C@@H](CCCCN)C(=O)N[C@@H](CC(N)=O)C(=O)N[C@@H](CCCNC(=N)N)C(=O)N[C@@H](CS)C(=O)N[C@@H](Cc1ccccc1)C(=O)N[C@@H](CC(C)C)C(=O)N[C@@H](CCCNC(=N)N)C(=O)N[C@@H](CO)C(=O)N[C@@H](C)C(=O)N[C@@H](CO)C(=O)N[C@@H](CCC(=O)O)C(=O)O)[C@@H](C)O [linear LEAP-2] (H-MTPFWRGVSLRPIGASCRDNSECITMLCRKNRCFLRSASE-OH; N-terminus and C-terminus assumed),killed S. aureus gradually over time,≤ 30 min,not inhibited,–,–,–,–,–,–,–
"CC[C@H](C)[C@@H]1NC(=O)[C@@H]2CSSC[C@@H](C(=O)N[C@@H](Cc3ccccc3)C(=O)N[C@@H](CC(C)C)C(=O)N[C@@H](CCCNC(=N)N)C(=O)N[C@@H](CO)C(=O)N[C@@H](C)C(=O)N[C@@H](CO)C(=O)N[C@@H](CCC(=O)O)C(=O)O)NC(=O)[C@H](CCCNC(=N)N)NC(=O)[C@H](CC(N)=O)NC(=O)[C@H](CCCCN)NC(=O)[C@H](CCCNC(=N)N)NC(=O)[C@H](CSSC[C@H](NC(=O)[C@H](CO)NC(=O)[C@H](C)NC(=O)CNC(=O)[C@@H](NC(=O)[C@@H]3CCCN3C(=O)[C@H](CCCNC(=N)N)NC(=O)[C@H](CC(C)C)NC(=O)[C@H](CO)NC(=O)[C@@H](NC(=O)CNC(=O)[C@H](CCCNC(=N)N)NC(=O)[C@H](Cc3c[nH]c4ccccc34)NC(=O)[C@H](Cc3ccccc3)NC(=O)[C@@H]3CCCN3C(=O)[C@@H](NC(=O)[C@@H](N)CCSC)[C@@H](C)O)C(C)C)[C@@H](C)CC)C(=O)N[C@@H](CCCNC(=N)N)C(=O)N[C@@H](CC(=O)O)C(=O)N[C@@H](CC(N)=O)C(=O)N[C@@H](CO)C(=O)N[C@@H](CCC(=O)O)C(=O)N2)NC(=O)[C@H](CC(C)C)NC(=O)[C@H](CCSC)NC(=O)[C@H]([C@@H](C)O)NC1=O [disulfide LEAP-2] (H-MTPFWRGVSLRPIGASCRDNSECITMLCRKNRCFLRSASE-OH; disulfide 17-28, 23-33; N-terminus and C-terminus assumed)",killed S. aureus gradually over time,≤ 30 min,–,most of the cells were dead,most of the cells were dead,most of the cells were dead,more than 90%,killed most,90%,killed most

# Reference: PMC6601062, “Identification of duck liver-expressed antimicrobial peptide 2 and characterization of its bactericidal activity” (Asian-Australasian Journal of Animal Sciences, 2018)
